Assay results taken from patent US20240124399A1, “NOVEL INDOLE DERIVATIVE, AND USE THEREOF FOR TREATING DISEASES RELATED TO ADVANCED GLYCATION END PRODUCTS” (METACEN THERAPEUTICS, priority 2021, published 2024).

Assays:
[1] = Methylglyoxal (MGO) trapping ability: free MGO concentration by HPLC; type: biochemical; settings: for MGO concentration on day 1 (free MGO) / MGO concentration on day 7 (free MGO): compound 1:1 with MGO in PBS pH 7.4, 37° C.; for MGO concentration on day 1 (free MGO): day 1, HPLC; for MGO concentration on day 7 (free MGO): day 7, HPLC
Procedure: The objective of this experimental example was to confirm whether the compound of the present invention has the ability to trap methylglyoxal (MGO) by analyzing the concentration of free methylglyoxal (MGO) by high performance liquid chromatography (HPLC).
Specifically, a mixture was prepared by adding methylglyoxal (MGO) to phosphate buffered saline (PBS, Cat no. 10010023, pH 7.4). […]

[2] = Methylglyoxal (MGO) trapping ability: fluorescence intensity of reaction product; type: biochemical; settings: compound 1.0 mM in MGO+PBS pH 7.4, 37° C., 1 day; ex 355 nm / em 460 nm; 10×10^3 or more = ability to trap MGO
Procedure: Methylglyoxal (MGO) is a main precursor of advanced glycation end products that cause complications due to diabetes mellitus. Successful trapping of methylglyoxal (MGO) can inhibit the production of advanced glycation end products. Therefore, the objective of this experimental example was to confirm whether the compound of the present invention has the ability to trap methylglyoxal (MGO), a precursor before the production of advanced glycation end products.
A mixture was prepared by adding methylglyoxal (MGO) to phosphate buffered saline (PBS, Cat no. 10010023, pH 7.4). The mixture (MGO+PBS) was treated with the compound of the above example at a concentration of 1.0 mM and then cultured at 37° C. for 1 day. The fluorescence intensity of the reaction product was measured at an excitation wavelength of 355 nm and an emission wavelength of 460 nm using a VICTOR™X3 multilabel plate reader.
The higher the fluorescence intensity measured from the reaction product, the higher the ability of the compound to trap methylglyoxal. In addition, in this experimental example, when the fluorescence intensity was 10×10^3 or more, it was determined that the compound had the ability to trap methylglyoxal.

SMILES	MGO concentration on day 1 (free MGO) [1] [µM]	MGO concentration on day 7 (free MGO) [1] [µM]	Fluorescence intensity on day 1 (×10^3) [2]	concentration of free methylglyoxal relative to the control group, day 1 ([1]; day 1 after incubation, control group PBS+MGO)	concentration of free methylglyoxal relative to the control group, day 7 ([1]; day 7 after incubation, control group PBS+MGO)
CCCC(=O)N[C@H](CO)Cc1c[nH]c2ccc(OC(=O)CCC)cc12 [Compound 9, (S)-3-(2-butyramido-3-hydroxypropyl)-1H-indol-5-yl butyrate]	551.993	403.462	0.75 ± 0.30 ×10^3		
CCCC(=O)OC[C@@H](N)Cc1c[nH]c2ccc(OC(=O)CCC)cc12 [Compound 8, (S)-2-amino-3-(5-(butyryloxy)-1H-indol-3-yl)propyl butyrate]	501.09	412.65	21.74 ± 0.50 ×10^3		
NCCCCNCCCNC(=O)OC[C@@H](N)Cc1c[nH]c2ccc(O)cc12 [Compound 10, (S)-2-amino-3-(5-hydroxy-1H-indol-3-yl)propyl (3-((4-aminobutyl)amino)propyl)carbamate]	444.11	269.28	223.01 ± 3.74 ×10^3	about 12%	about 38%
